The results in this text go back to ChEMBL document CHEMBL1149820, “Synthesis, properties and photodynamic inactivation of Escherichia coli by novel cationic fullerene C60 derivatives” (2008).

Holding throughout (assay type): functional
Assay [1] has as its system Escherichia coli. The assay is described as follows: Photoinactivation of Escherichia coli EC7 at 1 uM after 20 mins of irradiation.
Assay [2] has as its system Escherichia coli. The assay is described as follows: Photoinactivation of Escherichia coli EC7 at 1 uM after 5 mins of irradiation.
In assay [3] the test system is Escherichia coli. In words: Photoinactivation of Escherichia coli EC7 assessed as log reduction of cell survival at 5 uM after 30 mins of irradiation.

In the assay on Escherichia coli [1], `C[N+](C)(C)CCCOc1ccc(-c2c3nc(c(-c4ccc(C(F)(F)F)cc4)c4ccc([nH]4)c(-c4ccc(OCCC[N+](C)(C)C)cc4)c4nc(c(-c5ccc(C(F)(F)F)cc5)c5ccc2[nH]5)C=C4)C=C3)cc1.[I-].[I-]` yielded an Activity of 87%.
The molecule `Cc1ccc(-c2c3nc(c(-c4ccc([N+](C)(C)C)cc4)c4ccc([nH]4)c(-c4ccc([N+](C)(C)C)cc4)c4nc(c(-c5ccc(C)cc5)c5ccc2[nH]5)C=C4)C=C3)cc1.[I-].[I-]` gave an Activity with Escherichia coli [2] of 70%. In the assay on Escherichia coli [3], the Survival worked out at 3.2.
